Broadly, the IC50 is the concentration at which inhibition is half-maximal.

For eight compounds, IC50 results are on record in patent US20260132132A1, “3A,4,5,6-TETRAHYDRO-1 H-PYRAZOLO[3,4-C]PYRIDIN-7(7AH)-ONE DERIVATIVES AS FACTOR XIIA INHIBITORS” (KALVISTA PHARMACEUTICALS LIMITED, priority 2022, published 2026).

The target in assay [1] is T1, Human Factor XIIa (hFXIIa) (Homo sapiens, UniProt P00748).
T1 construct: purchased Enzyme Research Laboratories
T1 sequence (P00748 373-615 limits assumed): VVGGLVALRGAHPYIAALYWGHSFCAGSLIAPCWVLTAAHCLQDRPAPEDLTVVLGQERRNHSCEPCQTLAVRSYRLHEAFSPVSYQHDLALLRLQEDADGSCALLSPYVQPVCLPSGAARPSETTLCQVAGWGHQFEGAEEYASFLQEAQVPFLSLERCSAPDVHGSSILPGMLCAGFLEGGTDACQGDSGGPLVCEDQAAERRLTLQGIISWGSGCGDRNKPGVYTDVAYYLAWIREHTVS
T1 sequence (P00748 20-372 partner limits assumed): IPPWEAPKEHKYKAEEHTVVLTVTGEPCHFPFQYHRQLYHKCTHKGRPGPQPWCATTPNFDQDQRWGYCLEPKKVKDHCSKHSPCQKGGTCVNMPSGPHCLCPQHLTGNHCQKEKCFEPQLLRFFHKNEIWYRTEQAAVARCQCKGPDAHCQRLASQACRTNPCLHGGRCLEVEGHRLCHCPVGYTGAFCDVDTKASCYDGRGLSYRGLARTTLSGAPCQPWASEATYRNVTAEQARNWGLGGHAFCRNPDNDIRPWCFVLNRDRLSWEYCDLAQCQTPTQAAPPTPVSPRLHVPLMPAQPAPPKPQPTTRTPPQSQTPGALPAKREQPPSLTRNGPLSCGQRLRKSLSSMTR
In words: Determination of Human Factor XIIa (hFXIIa) inhibition, fluorogenic substrate IC50 assay. To be noted: fluorogenic substrate H-DPro-Phe-Arg-AFC at Km, 25° C., read-out: Human FXIIa IC50. Type of assay: biochemical. How it is done: Determination of Human Factor XIIa (hFXIIa) inhibition
The Km for the cleavage of the substrate by hFXIIa was determined by standard transformation of the Michaelis-Menten equation, with subsequent inhibition assays performed at substrate Km concentration.

For the next assay, the target named is FXa (Homo sapiens, UniProt P00742). In words: Related protease inhibition: FXa, fluorogenic substrate. Type of assay: biochemical. The note with it: fluorogenic substrate at Km, 25° C.; H1-H3 = % activity at 40 μM. How it is done: Human serine protease enzyme Plasma Kallikrein, KLK1, FXa, Plasmin, Thrombin and Trypsin were assayed for enzymatic activity using an appropriate fluorogenic substrate at Km concentration, FXIa at fixed substrate concentration of 100 μM and various concentrations of the test compound.
FXa, sequence (P00742 235-488 limits assumed): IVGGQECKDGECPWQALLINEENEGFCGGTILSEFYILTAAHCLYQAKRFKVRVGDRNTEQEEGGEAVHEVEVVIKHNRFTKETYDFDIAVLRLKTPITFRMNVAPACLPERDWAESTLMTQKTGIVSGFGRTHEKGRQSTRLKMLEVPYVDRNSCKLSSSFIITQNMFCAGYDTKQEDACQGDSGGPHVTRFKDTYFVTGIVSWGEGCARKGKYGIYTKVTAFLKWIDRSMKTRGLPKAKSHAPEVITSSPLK
FXa, sequence (P00742 41-179 partner limits assumed): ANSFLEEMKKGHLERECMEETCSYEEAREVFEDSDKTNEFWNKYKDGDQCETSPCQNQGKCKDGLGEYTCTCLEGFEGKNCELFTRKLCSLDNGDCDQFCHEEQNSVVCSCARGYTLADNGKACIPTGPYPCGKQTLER

In the case of `CCCN1CCc2ccc(N3CCc4c(C(=O)NCc5cc(C)n(C)n5)nn(-c5cccc(Cl)c5)c4C3=O)cc2C1=O` [Example 1210, 1-(3-chlorophenyl)-N-((1,5-dimethyl-1H-pyrazol-3-yl)methyl)-7-oxo-6-(1-oxo-2-propyl-1,2,3,4-tetrahydroisoquinolin-7-yl)-4,5,6,7-tetrahydro-1H-pyrazolo[3,4-c]pyridine-3-carboxamide], the IC50 in assay [1] was 100 to 300 nM; against FXa it was above 40000 nM.
The corresponding values for `CCCN1CCc2ccc(N3CCc4c(C(=O)NCC5CC5)nn(-c5cccc(Cl)c5)c4C3=O)cc2C1=O` [Example 1211, 1-(3-chlorophenyl)-N-(cyclopropylmethyl)-7-oxo-6-(1-oxo-2-propyl-1,2,3,4-tetrahydroisoquinolin-7-yl)-4,5,6,7-tetrahydro-1H-pyrazolo[3,4-c]pyridine-3-carboxamide] are 300 to 1000 nM and above 40000 nM.
`Cc1ccncc1CNC(=O)c1nn(-c2cccc(Cl)c2)c2c1CCN(c1ccc3ccn(C)c(=O)c3c1)C2=O` [Example 1212, 1-(3-chlorophenyl)-6-(2-methyl-1-oxo-1,2-dihydroisoquinolin-7-yl)-N-((4-methylpyridin-3-yl)methyl)-7-oxo-4,5,6,7-tetrahydro-1H-pyrazolo[3,4-c]pyridine-3-carboxamide]: the IC50 in assay [1] was 1000 to 3000 nM; against FXa, above 40000 nM.
The like results for `COc1cncc(CNC(=O)c2nn(-c3cccc(Cl)c3)c3c2CCN(c2ccc4c(c2)C(=O)N(C)CC4)C3=O)c1` [Example 1213, 1-(3-chlorophenyl)-N-((5-methoxypyridin-3-yl)methyl)-6-(2-methyl-1-oxo-1,2,3,4-tetrahydroisoquinolin-7-yl)-7-oxo-4,5,6,7-tetrahydro-1H-pyrazolo[3,4-c]pyridine-3-carboxamide] were, in that order, 100 to 300 nM and 3000 to 10000 nM.
The corresponding values for `O=C(NCC1CC1)c1nn(-c2cccc(Cl)c2)c2c1CCN(c1ccc3c(c1)C(=O)N(CCO)CC3)C2=O` [Example 1216, 1-(3-chlorophenyl)-N-(cyclopropylmethyl)-6-(2-(2-hydroxyethyl)-1-oxo-1,2,3,4-tetrahydroisoquinolin-7-yl)-7-oxo-4,5,6,7-tetrahydro-1H-pyrazolo[3,4-c]pyridine-3-carboxamide] are 100 to 300 nM and above 40000 nM.
For the compound `Cc1cn(C)nc1CNC(=O)c1nn(-c2cccc(Cl)c2)c2c1CCN(c1ccc3c(c1)C(=O)N(CCO)CC3)C2=O` [Example 1217, 1-(3-Chlorophenyl)-N-[(1,4-dimethylpyrazol-3-yl)methyl]-6-[2-(2-hydroxyethyl)-1-oxo-3,4-dihydroisoquinolin-7-yl]-7-oxo-4,5-dihydropyrazolo[3,4-c]pyridine-3-carboxamide], the IC50 was in the range of 10 to 100 nM in assay [1] and 10000 to 40000 nM at FXa.
Take `O=C(NCc1ccnnc1)c1nn(-c2cccc(Cl)c2)c2c1CCN(c1ccc3c(c1)CN(CCO)CC3)C2=O` [Example 1218, 1-(3-chlorophenyl)-6-(2-(2-hydroxyethyl)-1,2,3,4-tetrahydroisoquinolin-7-yl)-7-oxo-N-(pyridazin-4-ylmethyl)-4,5,6,7-tetrahydro-1H-pyrazolo[3,4-c]pyridine-3-carboxamide]: the IC50 in assay [1] is 100 to 300 nM; on FXa, above 40000 nM.
On to `O=C(NCc1cocn1)c1nn(-c2cccc(Cl)c2)c2c1CCN(c1ccc3c(c1)CN(CCO)CC3)C2=O` [Example 1223, 1-(3-chlorophenyl)-6-(2-(2-hydroxyethyl)-1,2,3,4-tetrahydroisoquinolin-7-yl)-N-(oxazol-4-ylmethyl)-7-oxo-4,5,6,7-tetrahydro-1H-pyrazolo[3,4-c]pyridine-3-carboxamide], for which the IC50 in assay [1] is 100 to 300 nM; against FXa, 10000 to 40000 nM.
